Article PMC6008768, “Physiologically Based Pharmacokinetic Modelling with Dynamic PET Data to Study the In Vivo Effects of Transporter Inhibition on Hepatobiliary Clearance in Mice” (Contrast Media & Molecular Imaging, 2018)
Values joined by “and” are separate entries in the source; they are usually repeats but may differ in a detail not shown here. Equal entries are not always repeated. Where two headings read alike, the source gives them in different places.

Legend:
[1] = In vivo PBPK compartment modelling of dynamic whole-body PET data; design: species or system mice; details: for average CLH when kBG was fitted / calculated transintestinal clearance: kBG fitted
Source text: C(t) of liver, kidneys, and peripheral tissue and A(t) of gallbladder and intestines were derived from manually drawn volumes of interest according to the PET/CT images, using the VOI functions of PMOD. Regions of interest are shown for a representative scan in Supplementary Figure 1. C(t) data were transformed to A(t) by multiplication with the reported average volume of the respective organ or tissue. These were 0.065 cm^3 per g BW for liver and 0.0164 cm^3 per g BW for kidneys. The volume of the “peripheral tissue” (VTissue) with C(t) determined from the left shoulder was estimated during the fitting procedure. It was 0.74 ± 0.08 cm^3 per g BW for [^11C]MT107 control scans and 0.79 ± 0.10 cm^3/g for [^11C]MT107 scans after cyclosporine treatment, without significant difference (p = 0.47).
A(t) of the individual regions of interest were fitted with custom-written MATLAB scripts (MathWorks, Natick, MA) according to the compartment model shown in Figure 2, using the ode45 function to solve the differential equation system. Tracer input was simulated as a constant input of duration T (A(0)/T). Fitting was performed with the solver fmincon and the function MultiStart with 128 random sets of bounded initial parameters. Calculations were performed by parallel computing on 40 cores of the Euler cluster of ETH Zurich (https://scicomp.ethz.ch/). The initial parameters were best guesses from supervised simulations. Initial lower bounds were 0 for the rate constants of mass transfer (k). For k from plasma to liver and kidneys, the initial upper bounds were set according to the reported values for blood flow, corrected for (1 − hematocrit) to get the plasma flow (QP) divided by the plasma volume (VPlasma = vBlood × (1 − hematocrit) × BW). The QP for liver (QP,H) was 1.0 ml/min and for kidneys (QP,R) 0.73 ml/min.
Figure 2 Model for the pharmacokinetic analysis. A(0) is the dose, and T is the infusion duration (10 s). Initial A(t = 0) for all compartments (indicated by black boxes) were zero. The parameters k are mass transfer rate constants with the unit 1/time. The indices denote the source and target compartments, respectively (e.g., kBH1, k for the mass transfer from blood plasma to hepatic compartment “Liver 1”). A(t) of peripheral tissue was best fit with two sets of rate constants for reversible transfer. The sum of the two plasma-to-tissue rate constants is kBT. Several models were evaluated and the results were visually inspected. […] For [^11C]MT107 scans, kBG (grey arrow) was set to 0. Tissue blood fractions (vBlood multiplied with the organ or tissue volume and CBlood(t)) were added to the compartments where applicable. B, blood plasma; G, gallbladder plus intestine combined; H, liver; R, kidneys; T, peripheral tissue; U, urine.
During the fitting procedure, the sum of weighted squared residuals of all A(t) was minimized. For weighting, the residuals of the first two data points of plasma, liver, and kidney were multiplied with 5, to force the fits through these initial data points. After several rounds, the best estimates with the lowest sum of squared residuals were used per tracer to define the final upper and lower bounds as 0.5-fold the minimal respective fit parameter and 2-fold the highest respective fit parameter per tracer. […] Under these refined conditions, one calculation (one scan) with 128 random sets of initial values required 10–120 min.
CLH was calculated according to (2) CLH=kBH1×kH1H2/kH1B+kH1H2×VPlasma, where the rate constants k are defined in the model in Figure 2. Note that at steady state this equals CLH calculated from kH2G.
The term 1/(1 + kR1R2/kR2R1) corrects for the mass ratio between R1 and the combined R1 and R2.
Total CL was calculated as the sum of CLH and CLR and compared to the CL estimated from the CPlasma(t) biexponential fits (see (1)), as CL = λz × Vz. […]

[2] = PET images: radioactivity distribution; format: in vivo, mice; details: for radioactivity distribution in PET images: control conditions; for change of radioactivity distribution in PET images: cyclosporine 50 mg/kg i.v. before tracer, compared to scans without cyclosporine
Protocol: (§1) For PET/CT acquisition, mice were anaesthetized with 3 to 5% isoflurane in air/oxygen (1 : 1), at a respiratory rate of ~60 per min as described elsewhere. Cyclosporine (50 mg/kg), to inhibit cyclosporine-sensitive transporters, was injected into a tail vein (i.v.), 30 to 50 min before tracer injection while the respective tracer was synthesized. The injected cyclosporine solution was a dilution with water for injection (1 : 1) of Sandimmun® (Novartis Pharmaceuticals, Basel, Switzerland; 50 mg/ml cyclosporine in 26.1% ethanol/65% PEG-35 castor oil). Vehicle (13% ethanol, 2 ml/kg) was injected as a control as indicated. Immediately after radiosynthesis quality control, the tracer was injected i.v. at a dose between 3 and 14 MBq (<20 nmol/kg) in 100 to 200 μL saline containing 5% ethanol. Injections lasted ~10 s. The mouse was transferred to a SuperArgus PET/CT scanner (Sedecal, Madrid, Spain, formerly Vista eXplore) with an axial field of view of 4.8 cm and a spatial resolution of 1.6–1.7 mm (full width at half maximum; [23]). Body temperature and respiratory rate were controlled as previously described. The PET scan was started in List mode 60 s after tracer injection. After 60 min scan duration, computed tomography (CT) data were recorded for anatomical orientation.
The PET data were reconstructed into 10 or 12 time frames by 2D Fourier rebinning/ordered-subsets expectation maximization (FORE/OSEM), 2 iterations, and 16 subsets, correcting for singles and randoms but not attenuation. Images were generated with the software PMOD v3.8 (PMOD, Zurich, Switzerland). All radioactivities were decay-corrected to the time point of tracer injection.

[3] = design: method as in PMID 24834996; details: 30 min after administration; cited from earlier work
[4] = system: human costimulatory molecule CD80 (hCD80); design: method as in Taddio et al., in preparation; details: ref Taddio et al., in preparation; cited from earlier work
[5] = cited from earlier work
[6] = design: method as in PMID 24834996; details: cited from earlier work
[7] = Plasma kinetics: biexponential fit of image-derived CPlasma(t) from dynamic PET; format: in vivo, mice
Protocol: as §1
The blood C(t) was generated with PMOD from the PET images as follows. A cropped cube of 10 × 10 × 10 mm^3 including the image data of the heart was divided into 12 segments with differing kinetics, using the PSEG module of PMOD. C(t) of the segment covering the left heart ventricle according to the PET (first time frame)/CT images was used as an estimation of the blood C(t) (CBlood(t)). CBlood(t) was divided by (1 − hematocrit) to get CPlasma(t) and fitted to a biexponential infusion function as shown in (1) CPlasmat=A0/T×V1×λ1×V1/Vz−λ1/λ1λz−λ1×1−e^−λ1×tt≤T+Tt>T×e^−λ1×t−Tt>T+λ1×V1/Vz−λz/λzλ1−λz×1−e^−λz×tt≤T+Tt>T×e^−λz×t−Tt>T, where A(0) is the radioactivity dose, T is the duration of the injection (10 s infusion), V1 is the volume of the central compartment (initial volume of distribution of the tracer after injection), Vz is the volume of distribution during the terminal phase, and λ1 and λz are the respective rate constants of the biexponential function and t the time. The term [t(t ≤ T) + T(t > T)] equals t if t ≤ T but T if t > T. The term (t − T)(t > T) equals t − T if t > T, otherwise zero. The hematocrit was assumed 0.44 [25, 26].
Total CL was calculated as the sum of CLH and CLR and compared to the CL estimated from the CPlasma(t) biexponential fits (see (1)), as CL = λz × Vz. The extraction ratio EH for liver was estimated as ratio between CLH and QP,H, with QP,H from Davies and Morris.

[8] = system: hCD80-positive xenografts; design: method as in PMID 24834996; details: previous work; cited from earlier work
[9] = control, for [11C]AM7 CLH includes kBG × VPlasma, for [11C]MT107 kBG = 0
[10] = after cyclosporine 50 mg/kg i.v.
[11] = after cyclosporine 50 mg/kg i.v., 30 to 50 min before tracer
[12] = control, tracer i.v., 60 min PET scan
[13] = cyclosporine 50 mg/kg i.v. versus control

CLR, renal clearance ([1]; control)	DTissue, distribution coefficient between tissue and plasma at equilibrium ([1]; control)	CLH, hepatobiliary clearance [1, 9]	Vz, volume of distribution during the terminal phase [7, 10] [mL]	λ1 rate constant of biexponential function [7, 10] [min⁻¹]	λz rate constant of biexponential function [7, 10]	V1, volume of the central compartment [7, 11] [mL]	Vz, volume of distribution during the terminal phase ([7]; control)	λ1 rate constant of biexponential function ([7]; control)	λz rate constant of biexponential function ([7]; control)	V1, volume of the central compartment [7, 12]	SMILES	radioactivity distribution in PET images [2]	change of radioactivity distribution in PET images [2]	affinity to hCD80 [4]	other results
161 µL/min and 179 µL/min	0.11 and 0.12	103 µL/min and 120 µL/min	8.0	0.204	0.0206 min⁻¹	4.2	10.3 mL and 9.4 mL	0.196 min⁻¹ and 0.295 min⁻¹	0.0234 min⁻¹ and 0.0270 min⁻¹	3.0 mL and 2.3 mL	[11CH3]N1CCC(NC(=O)c2ccc(-n3[nH]c4c(nnc5c(F)cccc54)c3=O)cc2)CC1 [[^11C]AM7]	accumulated in the liver, gallbladder, intestines, and the urinary bladder	increased in kidneys and peripheral tissue and reduced in liver, gallbladder, and intestines	low nanomolar range	radiometabolites in blood plasma [3]: No radiometabolites were detected; logD (pH 7.4) [5]: 0.1; unbound fraction in plasma (fu) [6]: 0.02; accumulation in hCD80-positive xenografts [8]: negligible
11.9 ± 5.3 µL/min	0.10 ± 0.02	35.2 ± 10.9 µL/min	3.33 ± 0.80	0.139 ± 0.021	0.0140 ± 0.0034^∗∗b 1/min	1.38 ± 0.11	2.66 ± 0.51 mL	0.121 ± 0.011 min⁻¹	0.0210 ± 0.0011 min⁻¹	1.49 ± 0.19 mL	[11CH3]N1CCC(NC(=O)c2ccc(-n3[nH]c4c(c(-c5cccc(C(F)(F)F)c5)nc5c(F)cccc54)c3=O)cc2)CC1 [[^11C]MT107]	higher tissue radioactivity compared to [^11C]AM7 but still high abdominal radioactivity accumulation	increased radioactivity uptake in the kidneys and peripheral tissue and reduction in the liver	low nanomolar range	kGH1, rate constant of reabsorption from intestines into liver compartment H1 ([1]; absence of cyclosporine): 0.0077 ± 0.0033 min⁻¹; CLR, renal clearance [1, 10]: 19.9 ± 5.1 µL/min; DTissue, distribution coefficient between tissue and plasma at equilibrium [1, 10]: 0.14 ± 0.03; CLH, hepatobiliary clearance ([1]; after cyclosporine 50 mg/kg i.v., kBG = 0): 17.1 ± 5.6 µl/min and 17.1 ± 5.6^∗b µl/min; average CLH when kBG was fitted ([1]; after cyclosporine administration): 9.3 ± 4.2 µL/min; increase of CLR after cyclosporine administration ([1]; average, not significant (p = 0.069)): 1.7 fold; EH, extraction ratio for liver (CLH/QP,H) ([1]; control): 0.035 ± 0.011; total CL from modelling lower than from biexponential fit of CPlasma(t) ([1]; control group): 16%; VTissue, volume of the peripheral tissue estimated during fitting ([1]; control scans): 0.74 ± 0.08 cm^3 per g BW; average CLH when kBG was fitted ([1]; control): 25.4 ± 6 µL/min; calculated transintestinal clearance ([1]; control): 10.5 ± 11.3 µL/min; CLH after cyclosporine relative to value in the absence of cyclosporine [1, 13]: 48%; EH after cyclosporine relative to value in the absence of cyclosporine [1, 13]: 48%; total CL from modelling lower than from biexponential fit of CPlasma(t) ([1]; cyclosporine group): 17%; calculated transintestinal clearance ([1]; cyclosporine group): 7.8 ± 4.1 µL/min; increase of average DTissue after cyclosporine administration (factor) ([1]; not significant (p = 0.078)): 1.34; kGH1, rate constant of reabsorption from intestines into liver compartment H1 ([1]; presence of cyclosporine): 0.0080 ± 0.0038 min⁻¹; VTissue, volume of the peripheral tissue estimated during fitting ([1]; scans after cyclosporine treatment): 0.79 ± 0.10 cm^3/g; logD (pH 7.4) ([5]; ref Taddio et al., in preparation): 2.0; increase of Vz after cyclosporine administration ([7]; not significant (p = 0.21)): 1.25 fold
